Measurements: PubChem BioAssay AID248 (DTP/NCI, 2004)
Several values for one entry are separate records, joined by “and”; a condition that tells them apart may be missing. Equal values may be shown once. Toxic doses and inconclusive results are not listed. No stated cut-off is given here; in the data, active means T/C of 150% or more; inactive means T/C below 125%.

System: L1210 leukemia ip in BDF1 mice, survival T/C
Test: NCI In Vivo Anticancer Drug Screen. Data for tumor model L1210 Leukemia (intraperitoneal) in B6D2F1 (BDF1) mice
Conditions: endpoint: mean survival time, higher = longer survival
Summary of the method: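 Transplanted-tumor mice were given test agent; controls received vehicle only. Survival readings from the two groups were divided (treated over control).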

[1] = dose: 100.0 mg/kg/injection, schedule: Q01DX009 (ip), vehicle: saline with Tween-80
[2] = dose: 100.0 mg/kg/injection, schedule: Q04DX003 (ip), vehicle: saline with Tween-80
[3] = dose: 200.0 mg/kg/injection, schedule: Q01DX009 (ip), vehicle: saline with Tween-80
[4] = dose: 200.0 mg/kg/injection, schedule: Q04DX003 (ip), vehicle: saline with Tween-80
[5] = dose: 400.0 mg/kg/injection, schedule: Q01DX009 (ip), vehicle: saline with Tween-80
[6] = dose: 400.0 mg/kg/injection, schedule: Q04DX003 (ip), vehicle: saline with Tween-80
[7] = dose: 100.0 mg/kg/injection, schedule: Q01DX009 (ip), vehicle: Klucel (hydroxypropylcellulose) (HPC)
[8] = dose: 100.0 mg/kg/injection, schedule: Q04DX002 (ip), vehicle: saline with Tween-80
[9] = dose: 75.0 mg/kg/injection, schedule: Q01DX001 (ip), vehicle: saline
[10] = dose: 150.0 mg/kg/injection, schedule: Q01DX001 (ip), vehicle: saline

Measured: T/C

CCOC(=O)C1(C)CCCC1=O (stereo not given)
inactive: dose: 100.0 mg/kg/injection, schedule: Q01DX009 (ip), vehicle: saline sonified 94 % of control | dose: 200.0 mg/kg/injection, schedule: Q01DX009 (ip), vehicle: saline sonified 97 % of control | dose: 400.0 mg/kg/injection, schedule: Q01DX009 (ip), vehicle: saline sonified 95 % of control

O=C(CCc1ccc(O)cc1)N/N=C/c1cc(Br)ccc1O
inactive: [1] 97 % of control | [2] 95 % of control | [3] 92 % of control | [4] 96 % of control | [5] 92 % of control | [6] 90 % of control

CCC(=O)Nc1cccc(C)c1C
inactive: [7] 93 % of control | dose: 100.0 mg/kg/injection, schedule: Q04DX003 (ip), vehicle: Klucel (hydroxypropylcellulose) (HPC) 102 % of control | dose: 200.0 mg/kg/injection, schedule: Q01DX009 (ip), vehicle: Klucel (hydroxypropylcellulose) (HPC) 106 % of control | dose: 200.0 mg/kg/injection, schedule: Q04DX003 (ip), vehicle: Klucel (hydroxypropylcellulose) (HPC) 102 % of control | dose: 400.0 mg/kg/injection, schedule: Q04DX003 (ip), vehicle: Klucel (hydroxypropylcellulose) (HPC) 95 % of control

CN1CCC(OC(c2ccccc2)c2ccccc2)CC1
inactive: dose: 20.0 mg/kg/injection, schedule: Q01DX009 (ip), vehicle: saline 107 % of control | dose: 20.0 mg/kg/injection, schedule: Q04DX003 (ip), vehicle: saline 108 % of control | dose: 40.0 mg/kg/injection, schedule: Q01DX009 (ip), vehicle: saline 113 % of control | dose: 40.0 mg/kg/injection, schedule: Q04DX003 (ip), vehicle: saline 105 % of control | dose: 80.0 mg/kg/injection, schedule: Q04DX003 (ip), vehicle: saline 95 % of control

CC(C)(C)SC(C)(C)C
inactive: [1] 96 % of control | [3] 96 % of control | [5] 96 % of control

CC(=O)OCCOc1ccc([N+](=O)[O-])cc1
inactive: [2] 102 % of control | [4] 102 % of control | [6] 103 % of control

CCC(C)(C1CCC(O)CC1)C1CCC(O)CC1 (stereo not given)
inactive: dose: 100.0 mg/kg/injection, schedule: Q01DX001 (ip), vehicle: saline 94 % of control | dose: 200.0 mg/kg/injection, schedule: Q01DX001 (ip), vehicle: saline 96 % of control | dose: 400.0 mg/kg/injection, schedule: Q01DX001 (ip), vehicle: saline 98 % of control

CC(=O)OC[C@]12CCC(C)=CC1O[C@@H]1C(OC(C)=O)[C@@H](O)[C@@]2(C)[C@]12CO2 (stereo not given in full)
inactive: dose: 0.4 mg/kg/injection, schedule: Q01DX009 (ip), vehicle: other 97 % of control | dose: 0.8 mg/kg/injection, schedule: Q01DX009 (ip), vehicle: other 114 % of control | dose: 1.6 mg/kg/injection, schedule: Q01DX009 (ip), vehicle: other 114 % of control | dose: 3.2 mg/kg/injection, schedule: Q01DX009 (ip), vehicle: other 116 % of control

COc1cc2c(cc1[N+](=O)[O-])C(=O)CCCC2
inactive: dose: 50.0 mg/kg/injection, schedule: Q01DX009 (ip), vehicle: saline with Tween-80 88 % of control | [1] 92 % of control

CC(C)(C)c1cc(NS(=O)(=O)c2ccccc2)c(N=[N+]=[N-])c(Cl)c1NS(=O)(=O)c1ccccc1
inactive: [8] 102 % of control | dose: 200.0 mg/kg/injection, schedule: Q04DX002 (ip), vehicle: saline with Tween-80 91 % of control | dose: 400.0 mg/kg/injection, schedule: Q04DX002 (ip), vehicle: saline with Tween-80 102 % of control

O=c1[nH]c(Cl)ncc1F
inactive: [9] 95 % of control | [10] 96 % of control | dose: 300.0 mg/kg/injection, schedule: Q01DX001 (ip), vehicle: saline 102 % of control

O=C(/C=C1\C(=O)Nc2ccccc21)/C=C1/C(=O)Nc2ccccc21
inactive: [7] 93 % of control

O=C(O)[C@@H]1C[C@H]1c1ccccc1
inactive: dose: 25.0 mg/kg/injection, schedule: Q04DX002 (ip), vehicle: saline + alcohol 100 % of control | dose: 50.0 mg/kg/injection, schedule: Q04DX002 (ip), vehicle: saline + alcohol 102 % of control | [1] 89 % of control | dose: 100.0 mg/kg/injection, schedule: Q04DX002 (ip), vehicle: saline + alcohol 109 % of control | [8] 114 % of control | [3] 87 % of control | [5] 92 % of control

CC/C=C(\CCC)C1(CC)C(=O)NC(=O)NC1=O
inactive: [9] 94 % of control | [10] 105 % of control

CC1(c2cccc(Cl)c2)NC(=O)NC1=O (stereo not given)
inactive: dose: 100.0 mg/kg/injection, schedule: Q04DX002 (ip), vehicle: Klucel (hydroxypropylcellulose) (HPC) 112 % of control | dose: 200.0 mg/kg/injection, schedule: Q04DX002 (ip), vehicle: Klucel (hydroxypropylcellulose) (HPC) 105 % of control | dose: 400.0 mg/kg/injection, schedule: Q04DX002 (ip), vehicle: Klucel (hydroxypropylcellulose) (HPC) 108 % of control

Cc1c2ccncc2cc2c3ccccc3n(CC3CO3)c12 (stereo not given)
inactive: dose: 37.5 mg/kg/injection, schedule: Q01DX009 (ip), vehicle: Klucel (hydroxypropylcellulose) (HPC) 96 % of control | dose: 37.5 mg/kg/injection, schedule: Q04DX003 (ip), vehicle: Klucel (hydroxypropylcellulose) (HPC) 104 % of control | dose: 75.0 mg/kg/injection, schedule: Q01DX009 (ip), vehicle: Klucel (hydroxypropylcellulose) (HPC) 96 % of control | dose: 75.0 mg/kg/injection, schedule: Q04DX003 (ip), vehicle: Klucel (hydroxypropylcellulose) (HPC) 106 % of control and 119 % of control | dose: 150.0 mg/kg/injection, schedule: Q01DX009 (ip), vehicle: Klucel (hydroxypropylcellulose) (HPC) 100 % of control | dose: 150.0 mg/kg/injection, schedule: Q04DX003 (ip), vehicle: Klucel (hydroxypropylcellulose) (HPC) 113 % of control | dose: 300.0 mg/kg/injection, schedule: Q01DX009 (ip), vehicle: Klucel (hydroxypropylcellulose) (HPC) 102 % of control
